# Columns and labels:
# [1] = test system: SZ95 sebocytes; assay: Viability MTT-assay on sebocytes, 48 h; assay type: cell-based, human; settings: 30 μM
# Procedure: Human immortalized SZ95 sebocytes, originated from human facial sebaceous glands[50] were provided by prof. Christos C. Zouboulis, and were cultured in Sebomed® Basal Medium (Cat. No. F8205; Sigma-Aldrich) supplemented with 10% FBS (Gibco-Thermo Fisher Scientific), 1 mM CaCl2 (Cat. No. C7902; Sigma-Aldrich), 5 ng/ml human epidermal growth factor (Cat. No. E9644; Sigma-Aldrich), and MycoZap™ Plus-CL (1:500; Lonza). The medium was changed every other day, and cells were subcultured at 60–70% confluence.
# The viability of HaCaT keratinocytes and SZ95 sebocytes was determined by MTT-assay[58] (Cat. No. M5655; Sigma-Aldrich) measuring the conversion of the tetrazolium salt to formazan by mitochondrial dehydrogenases. Cells were plated in 96-well plates (20,000 cells/well), and were treated as indicated. Cells were then incubated with 0.5 mg/ml MTT reagent for 3 h, and concentration of formazan crystals (as an indicator of number of viable cells) was determined colorimetrically at 565 nm by using FlexStation 3 multi-mode microplate reader (Molecular Devices). Results were expressed as percentage of vehicle-treated control regarded as 100%.
# [2] = test system: Klebsiella pneumoniae carbapenemase-producing bacteria; assay: Antibacterial effect, broth micro dilution
# Procedure: (§3) According to CLSI guideline the Minimal Inhibitory Concentrations (MICs) of the prepared compounds were determined with the broth micro dilution method. After an overnight growth on 5% bovine blood agar plates at 35 °C bacterial strains were suspended in physiological saline in order to reach the density of 0.5 McFarland for inoculation. Stock solutions containing different concentrations of the substances were prepared in DMSO and H2O (1:1). These were twofold serially diluted from 256 to 0.5 mg/l in Mueller–Hinton broth, and 100 ml of each dilution was inoculated with 10 ml of each bacterial suspension.
# [3] = test system: Bacillus subtilis; assay: MIC, broth micro dilution
# [4] = test system: A2780 cells; assay: Antiproliferative MTT assay, 72 h; assay type: cell-based, human; settings: Homo sapiens, A2780, 30 μM, read-out: inhibition of the proliferation
# Description: (§1) Human adherent cancer cell lines A2780, MDA-MB-231 and MCF-7 were obtained from ECACC (European Collection of Cell Cultures, Salisbury, UK; Cat. No.93112519, 92020424, 86012803, respectively). SiHa cell line was obtained from ATCC (American Tissue Culture Collection, Manassas, Virginia, USA; Cat. No. HTB-35). All cell lines used for antiproliferative assay were maintained in Eagle's Minimum Essential Medium (EMEM) completed with 10% fetal bovine serum (FBS), 1% non-essential amino acid solution, and 1% penicillin, streptomycin, and amphotericin B mixture under cell culture conditions described before. All the utilized media and supplements were purchased from Lonza Group Ltd. (Basel, Switzerland).
# (§2) The antiproliferative actions of the prepared molecules were determined by the same assay against a panel of adherent human cancer cell lines containing cervical (SiHa), ovarian (A2780) and breast (MCF7, MDA-MB-231) cell lines. Cells were plated onto 96-well microplates (5000 cells/well) and after an overnight incubation treated with two concentrations (10 or 30 μM) of the test substances for 72 h under cell culture conditions. Subsequently, MTT (5 mg/ml in phosphate buffer) was added to the wells, followed by incubation for 4 h. The supernatant was removed, the formazan crystals were then dissolved in 100 µl DMSO. Finally, absorbance values were determined by a microplate reader (BMG Labtech, Ortenberg, Germany) at 545 nm. Two independent measurements were performed with five parallel wells. Results were expressed as percentage of cell proliferation inhibition compared to non-treated control samples regarded as 0%.
# [5] = test system: MCF7 cells; assay: Antiproliferative MTT assay, 72 h; assay type: cell-based, human; settings: Homo sapiens, MCF7, 30 μM, read-out: inhibition of the proliferation
# Description: as §1, §2
# [6] = in vitro; settings: African green monkey
# [7] = test system: Enterococcus faecalis 29 212; assay: MIC, broth micro dilution; settings: Enterococcus faecalis, 29212
# Procedure: as §3
# [8] = test system: Enterococcus faecalis 15 376 VanA; assay: MIC, broth micro dilution; settings: Enterococcus faecalis, 15376VANA
# Procedure: as §3
# [9] = test system: Enterococcus faecalis 51299 VanB; assay: MIC, broth micro dilution; settings: Enterococcus faecalis, 51299VANB
# Procedure: as §3
# [10] = test system: MRSA (Methicillin Resistant Staphylococcus aureus); assay: MIC, broth micro dilution; settings: Staphylococcus aureus
# Procedure: as §3
# [11] = test system: Pseudomonas aeruginosa; assay: Antibacterial effect, broth micro dilution; assay type: cell-based
# [12] = test system: Staphylococcus epidermidis biofilm forming; assay: MIC, broth micro dilution; settings: Staphylococcus epidermidis
# Procedure: as §3
# [13] = test system: multidrug-resistant Acinetobacter baumannii; assay: Antibacterial effect, broth micro dilution
# Procedure: as §3
# [14] = test system: MSSA (Methicillin Sensitive Staphylococcus aureus); assay: MIC, broth micro dilution; settings: Staphylococcus aureus
# Procedure: as §3
# [15] = test system: Staphylococcus epidermidis mecA; assay: MIC, broth micro dilution; settings: Staphylococcus epidermidis
# [16] = test system: SARS-CoV-2; assay: SARS-CoV-2 cytopathic effect (CPE) inhibition assay in Vero E6 cells (XTT); assay type: cell-based; settings: Severe acute respiratory syndrome coronavirus 2, Vero C1008, 72 h; Vero E6 cells, 3 days post-infection, XTT
# Procedure: CBD and CBG derivatives were further tested for their ability to inhibit SARS-CoV-2 replication in Vero E6 cells. Initially, the inhibition of virus-induced cytopathic effect was measured by addition of twofold serial dilutions of each derivative to the cells, followed by the infection with SARS-CoV-2 and determination of the cell viability 3 days post-infection by XTT assay. Concurrently, the cytotoxicity of each compound was assessed from identical dilutions in uninfected Vero E6 cells. To confirm anti-SARS-CoV-2 activity in the CPE inhibition assay, selected compounds were tested in immunofluorescence assay, where inhibition of SARS-CoV-2 replication was monitored as reduction in nucleoprotein expression using fluorescence microscope. […] Among the CBG derivatives, we can find quite cytotoxic and non-cytotoxic derivatives as well.
# For CPE-based assay, two-fold fold serial dilutions of compounds from 100 µM were added in triplicate in a 384-well plate with 5000 Vero E6 cells in DMEM medium with 2% FBS, 100 U of penicillin/ml and 100 µg of streptomycin/ml (all Merck). After 1 h incubation SARS-CoV-2 (strain hCoV-19/Czech Republic/NRL_6632_2/2020) was added at multiplicity of infection […]. Following three days incubation at 37 °C in 5% CO2 the cell viability was determined by addition of XTT solution (Sigma-Aldrich) for 4 h and the absorbance was measured using EnVision plate reader (Perkin Elmer). Drug concentrations required to reduce viral cytopathic effect by 50% (EC50) were calculated using nonlinear regression from plots of percentage cell viability versus log10 drug concentration using GraphPad Prism (version 9.0.0, GraphPad Software, LLC). For immunofluorescence assay, two-fold fold serial dilutions of compounds from 100 µM were added in triplicate in 96-well plate with 15,000 Vero E6 cells plated day before in the same medium as above. After 1 h incubation, SARS-CoV-2 was added at multiplicity of infection 0.05 IU/cell. After three days of incubation, cells were fixed with 4% paraformaldehyde, permeabilized with 0.2% Triton X100 (both Merck), washed, incubated with anti-SARS-CoV-2antibody (mouse monoclonal antibody detecting SARS-CoV-2 nucleoprotein) for 2 h at room temperature. Followed by 1.5 h incubation with Cy3-labeled donkey anti-mouse IgG (Jackson ImmunoResearch Europe) and documented using fluorescence microscope with camera (Olympus). Images were processed in ImageJ software (NIH) and compound concentrations required to reduce fluorescence by 50% (EC50s) were calculated from plots of percentage of fluorescent cells versus log10 drug concentration using nonlinear regression analysis as above. Cytotoxicity was evaluated by incubating with the same two-fold serial dilutions of each compound as above with Vero E6 cells in 384-well plate.
# [17] = test system: Escherichia coli; assay: Antibacterial effect, broth micro dilution; assay type: cell-based
compound,measurement,setting,value
"CCCCCc1cc(O)c(C/C=C(\C)CCC=C(C)C)c(O)c1 [Compound 2, (−)-cannabigerol]",viability (MTT signal intensity),[1],tended to suppress viability
same,antibacterial effect (no effect up to),[2],> 256 µg/mL
same,MIC,[3],2 µg/mL
same,inhibition at 30 µM,[4],> 90%
same,inhibition at 30 µM,[5],> 90%
same,CC50,[6],~11 µM
same,MIC,[7],4 µg/mL
same,MIC,[8],4 µg/mL
same,MIC,[9],4 µg/mL
same,MIC,[10],4 µg/mL
same,antibacterial effect (no effect up to),[11],> 256 µg/mL
same,MIC,[12],8 µg/mL
same,antibacterial effect (no effect up to),[13],> 256 µg/mL
same,MIC,[14],4 µg/mL
same,MIC,[15],8 µg/mL
same,EC50,[16],> 11 µM
same,antibacterial effect (no effect up to),[17],> 256 µg/mL

# — paper PMC10638401, “Mannich-type modifications of (−)-cannabidiol and (−)-cannabigerol leading to new, bioactive derivatives” (Scientific Reports, 2023)
